Values quoted from earlier work as cited in patent publication US20060292216A1, “Enteric delivery of (-)-hydroxycitric acid” (priority 2003, published 2006).

Columns and labels:
[1] = system: human hepatoma cell line Hep G2
test subjects = settings: chronic administration; resting and exercising conditions
humans = settings: conditions that elevate de novo lipogenesis
[2] = system: experimental animals fed a high-sugar diet; settings: single large oral dose or two divided oral doses totaling one fourth of it
[3] = system: middle-aged rats fed a 30% fat diet

In the case of `O=C(O)CC(O)(C(=O)O)C(O)C(=O)O` (single isomer, unassigned; (-)) [HCA, (−)-hydroxycitric acid], the “cholesterol biosynthesis, of the control value, by incorporation from 3H2O” value [1] is given as 27 % of the control value, the “incorporation of [1,5-14C]citrate into fatty acids and cholesterol” value ([1]; 0.5 mM or higher, 2.5 h and 18 h incubations) is given as “strongly inhibited” and the respiratory exchange ratio (test subjects) is given as “significantly lower”. For the same compound, the “fat synthesis and energy expenditure” value (humans) was “reduced fat synthesis and increased energy expenditure” and the “reduction in food consumption” value [2] was no less than 10%.
For `O=C([O-])CC(O)(C(=O)[O-])C(O)C(=O)[O-].[K+].[K+].[K+]` (stereo not drawn) [potassium HCA], the “protein and fat as percentage of body weight” value [3] is listed as “increased protein as a percentage of body weight while reducing fat as a percentage of body weight”.
